We go through two sequences from patent US12295997B2, “Prostate neoantigens and their uses” (Janssen Biotech, Inc., priority 2020, dated 2025).

The test system of test [1] is CD8+ and CD4+ T cells (autologous CD3+ Pan-T cells isolated from human normal PBMCs). The experiment in a line: Exogenous autologous normal donor restimulation assay (15-mer overlapping peptide pools on CD1c+ dendritic cells, TNFα/IFNγ flow cytometry). The following applies: Table 25, 15-mer overlapping peptide pool; for Maximum Fold Change Over Background CD4+ cells: TNFα+IFNγ+ CD4+ T cells; for Maximum Fold Change Over Background CD4+ cells / Maximum Fold Change Over Background CD8+ cells: highest fold change over negative control across normal donors; for Maximum Fold Change Over Background CD8+ cells: TNFα+IFNγ+ CD8+ T cells; for Maximum Frequency of TNFα/IFNγ Double Positive CD4+ T cells / Maximum Frequency of TNFα/IFNγ Double Positive CD8+ T cells: highest frequency across normal donors. Format: cell-based. The procedure, abridged:
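Autologous CD3+ Pan-T cells from normal donors were co-cultured 12 days with irradiated CD1c+ DCs pulsed with 15-mer overlapping neoantigen peptide pools at 2.5–10 μg/mL, with IL-15 and IL-2 support. Cells were restimulated on day 11, then TNFα/IFNγ double-positive CD8+ and CD4+ frequencies read by flow. Positive means ≥3-fold over DMSO and ≥0.01%.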
A general note: In flow cytometry, cells or beads pass a laser one at a time.

For test [2] the test system is unchanged. The experiment in a line: Endogenous autologous normal donor restimulation assay (Ad5-transduced CD1c+ dendritic cells, TNFα/IFNγ flow cytometry). Format: cell-based. The conditions noted are these: Table 27, endogenous expression, peptide pool restimulation, highest across sixteen normal donors. The procedure:
CD1c+ Dendritic Cells (DC) isolated from human normal PBMCs were thawed using media (IMDM (Gibco) supplemented with glutamine, HEPES, 5% human serum (Sigma), and 1×Pen-Strep). DC cells were resuspended in media supplemented with IL-4 (Peprotech, 80 ng/mL) and GM-CSF (Gibco, 80 ng/mL), plated in 6 well microplates, and rested overnight at 37° C. (5% CO2). The following day, DC cells were counted and plated in a 96 well round bottom microplate at a concentration of 30,000 viable cells per well. Ad5 vectors (Vector Biolabs) were dilute in media to an MOI (Multiplicity Of Infection) of 5000 based on Plaque Forming Units. Ad5 vectors for the CEF pool and a “null” were used as controls. DCs were transduced with Ad5 vectors overnight at 37° C. (5% CO2). The following day, the Ad5 vectors were washed off the plate by three sequential centrifugation/aspiration steps using sterile Phosphate Buffered Saline. After the final wash, transduced DCs were resuspended in 100 μL media. Autologous CD3+ Pan-T cells isolated from human normal PBMCs were thawed using media. Pan-T cells were added to the irradiated DCs at 300,000 viable cells per well (100 μL/well). Human IL-15 (Peprotech) was added to all wells at final concentration of 10 ng/mL.
Plates were incubated at 37° C. (5% CO2) for a total of 12 days. Media was refreshed every 2-3 days with IL-15 (10 ng/mL final concentration) and IL-2 (R&D systems, 10 IU/mL final concentration). On day 11 lyophilized peptides (15-mer overlapping peptides) were solubilized in 100% DMSO and pooled by neoantigen to between 5 mg/mL and 20 mg/mL. Neoantigen peptides pools were added to cells for a final concentration of 2.5 μg/mL to 10 μg/mL. CEF Peptide Pool “Plus” (Cellular Technologies, Ltd.) was utilized as a positive control and DMSO at the same final concentration as the experimental peptides was utilized as a negative control. Protein Inhibitor Cocktail (eBioscience) was added to every well and plate was incubated overnight at 37° C. (5% CO2).
On day 12, cells were stained for intracellular flow cytometry analysis. The cells were washed with PBS and stained with Live/Dead Fixable Aqua Dead Cell stain (Thermo-Fisher). Following the live/dead stain, cells were blocked using Biotin-Free Fc Receptor Blocker (Accurate Chemical & Scientific Corp). Extracellular cellular flow panel ([…] per well in 50 μL) consisted of CD3 PerCP-Cy5.5 (Biolegend), CD4 BV421 (Biolegend), and CD8 APC-Cy7 (Biolegend). After extracellular staining, cells were fixed using Foxp3/fTranscription Factor Staining Buffer Set (eBioscience) and stained for intracellular proteins (1:50 dilution) using TNFα FITC (R&D Systems) and IFNγ BV785 (Biolegend). Cells were washed and resuspended in stain buffer and analyzed using a BD Celesta flow cytometer.
Flow cytometry cell staining analysis was completed using FlowJo v10. Cells were gated on live, singlet, CD3+ cells. The CD8+ and CD4+ T cells were analyzed for TNFα/IFNγ expression and the frequency of double positive TNFα/IFNγ CD8+ and the frequency of double positive TNFα/IFNγ CD4+ T cells were recorded. Responses were assessed to be positive when the frequency of double positive TNFα/IFNγ CD8+ or TNFα/IFNγ CD4+ T cells due to stimulation with an experimental peptide pool was increased greater than or equal to 3-fold over the DMSO only negative control for that donor and at least 0.01%.
For three of the neoantigens, an Ad5 vector was designed to transduce normal Dendritic cells with the neoantigens. This assay assessed the ability of the endogenously expressed and presented neoantigens to activate autologous T cells following overlapping 15-mer peptide pools restimulation using the endogenous autologous normal donor restimulation assay described in Example 1 utilizing TNFα and IFNγ production by CD8^+ and CD4^+ T cells as a readout. […] Sixteen donors were used to assess endogenous immunogenicity.

As to “WKFEMSYTVGGPPPHVHARPRHWKTDR (listed as Homo sapiens) [AS18, NWD1 alternative splicing]”, in test [1], the “Maximum Fold Change Over Background CD4+ cells” value worked out at 7.51, the “Maximum Fold Change Over Background CD8+ cells” value amounted to 9.17, the “Maximum Frequency of TNFα/IFNγ Double Positive CD4+ T cells” value turned out to be 0.053 and the “Maximum Frequency of TNFα/IFNγ Double Positive CD8+ T cells” value stood at 0.110. Also, in test [2], the “Maximum Fold Change Over Background CD4+ cells” value is recorded as 1.90, the “Maximum Fold Change Over Background CD8+ cells” value came out at 4.09, the “Maximum Frequency of TNFα/IFNγ Double Positive CD4+ T cells” value is 0.046 and the “Maximum Frequency of TNFα/IFNγ Double Positive CD8+ T cells” value came to 0.36.

Take “DGHSYTSKVNCLLLQDGFHGCVSITGAAGRRNLSIFLFLMLCKLEFHAC (listed as Homo sapiens) [AS55, SPOCK1 alternative splicing]”: in test [1], the “Maximum Fold Change Over Background CD4+ cells” value amounted to 19.38, the “Maximum Fold Change Over Background CD8+ cells” value was 1354.17, the “Maximum Frequency of TNFα/IFNγ Double Positive CD4+ T cells” value is on record as 0.310 and the “Maximum Frequency of TNFα/IFNγ Double Positive CD8+ T cells” value is reported as 32.500. Also, in test [2], the “Maximum Fold Change Over Background CD4+ cells” value worked out at 3.50, the “Maximum Fold Change Over Background CD8+ cells” value is 213.88, the “Maximum Frequency of TNFα/IFNγ Double Positive CD4+ T cells” value was determined as 0.063 and the “Maximum Frequency of TNFα/IFNγ Double Positive CD8+ T cells” value is reported as 2.05.
